Measurements taken from ChEMBL document CHEMBL1143998, “Binding to human serum albumin of zidovudine (AZT) and novel AZT derivatives. Experimental and theoretical analyses” (Bioorg Med Chem, 2008).

Experiments:
Assay type in all cases: ADME
Settings in all cases: isolated protein
[1] = molecular target: T1, Albumin (Homo sapiens, UniProt P02768); experiment: Binding affinity to fatty acid complexed human serum albumin
[2] = molecular target: T1, Albumin; experiment: Binding affinity to defatted human serum albumin
[3] = molecular target: T1, Albumin; experiment: Binding affinity to defatted human serum albumin relative to zidovudine
[4] = molecular target: T1, Albumin; experiment: Binding affinity to defatted human serum albumin in presence of salicylic acid

T1 sequence (P02768 whole entry): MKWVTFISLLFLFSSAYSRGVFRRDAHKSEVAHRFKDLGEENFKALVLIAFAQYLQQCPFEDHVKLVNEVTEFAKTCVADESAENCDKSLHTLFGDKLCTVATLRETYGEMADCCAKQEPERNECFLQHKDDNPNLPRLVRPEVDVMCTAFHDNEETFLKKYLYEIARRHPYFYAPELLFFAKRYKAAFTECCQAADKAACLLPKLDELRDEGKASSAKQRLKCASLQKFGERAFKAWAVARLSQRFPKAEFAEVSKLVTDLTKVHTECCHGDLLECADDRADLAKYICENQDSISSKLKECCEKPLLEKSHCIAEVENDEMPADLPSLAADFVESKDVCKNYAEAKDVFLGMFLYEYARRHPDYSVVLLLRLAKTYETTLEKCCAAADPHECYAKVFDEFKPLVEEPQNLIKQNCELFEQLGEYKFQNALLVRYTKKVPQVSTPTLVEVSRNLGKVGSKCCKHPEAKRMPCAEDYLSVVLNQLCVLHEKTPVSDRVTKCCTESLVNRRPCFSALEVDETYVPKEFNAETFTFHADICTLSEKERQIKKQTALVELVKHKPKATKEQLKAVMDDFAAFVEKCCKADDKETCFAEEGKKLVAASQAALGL

Activity [1]	Ka [1]	Activity [2]	Ka [2]	Activity [3]	Activity [4]	Ka [4]	Compound
11.9%	944.6 L/mol	17.4%	1535 L/mol	1.47	15.2%	1312.6 L/mol	Cc1cn([C@H]2C[C@H](N=[N+]=[N-])[C@@H](COC(=O)C(=O)N[C@H](C(=O)O)C(C)C)O2)c(=O)[nH]c1=O
23.7%	2172.1 L/mol	20.5%	1803.2 L/mol	1.73	17.6%	1519.8 L/mol	Cc1cn([C@H]2C[C@H](N=[N+]=[N-])[C@@H](COC(=O)C(=O)N[C@@H](Cc3c[nH]c4ccccc34)C(=O)O)O2)c(=O)[nH]c1=O
10.4%	811.7 L/mol	47%	6201.3 L/mol	5.93	7%	604.5 L/mol	Cc1cn([C@H]2C[C@H](N=[N+]=[N-])[C@@H](COC(=O)C(=O)O)O2)c(=O)[nH]c1=O
5.5%	436.6 L/mol	13.6%	1174.4 L/mol	1.12	8.3%	716.7 L/mol	Cc1cn([C@H]2C[C@H](N=[N+]=[N-])[C@@H](COC(=O)C(=O)N[C@@H](Cc3ccccc3)C(=O)O)O2)c(=O)[nH]c1=O
10.4%	890.9 L/mol	14.9%	1224.4 L/mol	1.17	9.4%	811.7 L/mol	Cc1cn([C@H]2C[C@H](N=[N+]=[N-])[C@@H](COC(=O)C(=O)N[C@@H](Cc3ccc(O)cc3)C(=O)O)O2)c(=O)[nH]c1=O
8.9%	683.2 L/mol	26.5%	2457 L/mol	2.35	5.2%	449 L/mol	Cc1cn([C@H]2C[C@H](N=[N+]=[N-])[C@@H](COC(=O)C(=O)N[C@@H](CC(C)C)C(=O)O)O2)c(=O)[nH]c1=O
38.8%	3277.3 L/mol	19.8%	1709.8 L/mol	1.64			Cc1cn([C@H]2C[C@H](N=[N+]=[N-])[C@@H](COC(=O)c3ccncc3)O2)c(=O)[nH]c1=O
7.6%	575.2 L/mol	35.2%	3765.4 L/mol	3.6	4.6%	397.2 L/mol	CC[C@H](C)[C@H](NC(=O)C(=O)OC[C@H]1O[C@@H](n2cc(C)c(=O)[nH]c2=O)C[C@@H]1N=[N+]=[N-])C(=O)O
16.1%	1341.9 L/mol	11.9%	944.6 L/mol	0.9	9.4%	811.7 L/mol	Cc1cn([C@H]2C[C@H](N=[N+]=[N-])[C@@H](COC(=O)C(=O)N3CCC[C@H]3C(=O)O)O2)c(=O)[nH]c1=O
